Reference: patent US20210045385A1, “PYRIDAZINONE-SUBSTITUTED KETOXIMES AS HERBICIDES” (FMC Corporation, priority 2018, published 2021)

Assays:
Assay type in all cases: in vivo
[1] = tested on: Italian ryegrass (Lolium multiflorum); assay: Test A preemergence, visual plant response rating; conditions: for Ryegrass, Italian plant response rating: 125 g ai/ha, preemergence, 0 to 100 scale, 0 no effect, 100 complete control; for Ryegrass, Italian plant response rating (0 to 100 scale): 500 g ai/ha Preemergence, approx. 10 days
How it was run: (§1)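 Greenhouse evaluation, approx. 10 days post-spray. Soil: loam + sand. Postemergence stage: 1–2 leaves, height 2–10 cm. Vehicle: non-phytotoxic solvent blend with surfactant. Score: visual injury on a 0 (no effect) to 100 (complete control) scale.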

[2] = tested on: barnyardgrass (Echinochloa crus-galli); assay: Test A preemergence, visual plant response rating; conditions: for Barnyardgrass plant response rating: 125 g ai/ha, preemergence, 0 to 100 scale, 0 no effect, 100 complete control; for Barnyardgrass plant response rating (0 to 100 scale): 500 g ai/ha Preemergence, approx. 10 days
How it was run: as §1

[3] = tested on: foxtail, giant (giant foxtail, Setaria faberii); assay: Test A preemergence, visual plant response rating; conditions: for Foxtail, Giant plant response rating: 125 g ai/ha, preemergence, 0 to 100 scale, 0 no effect, 100 complete control; for Foxtail, Giant plant response rating (0 to 100 scale): 500 g ai/ha Preemergence, approx. 10 days
How it was run: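 Preemergence: seeds in loam/sand blend given directed soil spray of compound in non-phytotoxic solvent with surfactant. Postemergence: plants 2–10 cm, one- to two-leaf stage, sprayed with same formulation. Visual injury rated vs untreated controls after ~10 days in greenhouse, 0 (no effect) to 100 (complete control).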

kochia (Kochia scoparia) [4] = assay: Test A preemergence, visual plant response rating; conditions: for Kochia plant response rating: 125 g ai/ha, preemergence, 0 to 100 scale, 0 no effect, 100 complete control; for Kochia plant response rating (0 to 100 scale): 500 g ai/ha Preemergence, approx. 10 days
How it was run: as §1

[5] = tested on: pigweed (Amaranthus retroflexus); assay: Test A preemergence, visual plant response rating; conditions: for Pigweed plant response rating: 125 g ai/ha, preemergence, 0 to 100 scale, 0 no effect, 100 complete control; for Pigweed plant response rating (0 to 100 scale): 500 g ai/ha Preemergence, approx. 10 days
How it was run: as §1

[6] = tested on: ragweed (common ragweed, Ambrosia elatior); assay: Test A preemergence, visual plant response rating; conditions: for Ragweed plant response rating: 125 g ai/ha, preemergence, 0 to 100 scale, 0 no effect, 100 complete control; for Ragweed plant response rating (0 to 100 scale): 500 g ai/ha Preemergence, approx. 10 days
How it was run: as §1

[7] = tested on: Italian ryegrass (Lolium multiflorum); assay: Test A postemergence, visual plant response rating; conditions: for Ryegrass, Italian plant response rating (0 to 100 scale): 500 g ai/ha, postemergence, 0 is no effect, 100 is complete control; for Ryegrass, Italian plant response rating: Postemergence, 125 g ai/ha, 0 to 100 scale (0 no effect, 100 complete control)
How it was run: as §1

[8] = tested on: barnyardgrass (Echinochloa crus-galli); assay: Test A postemergence, visual plant response rating; conditions: for Barnyardgrass plant response rating (0 to 100 scale): 500 g ai/ha, postemergence, 0 is no effect, 100 is complete control; for Barnyardgrass plant response rating: Postemergence, 125 g ai/ha, 0 to 100 scale (0 no effect, 100 complete control)
How it was run: as §1

[9] = tested on: blackgrass (Alopecurus myosuroides); assay: Test A postemergence, visual plant response rating; conditions: for Blackgrass plant response rating (0 to 100 scale): 500 g ai/ha, postemergence, 0 is no effect, 100 is complete control; for Blackgrass plant response rating: Postemergence, 125 g ai/ha, 0 to 100 scale (0 no effect, 100 complete control)
How it was run: as §1

corn (Zea mays) = assay: Test A postemergence, visual plant response rating; conditions: for Corn plant response rating (0 to 100 scale): 500 g ai/ha, postemergence, 0 is no effect, 100 is complete control; for Corn plant response rating: Postemergence, 125 g ai/ha, 0 to 100 scale (0 no effect, 100 complete control)
How it was run: as §1

[10] = tested on: foxtail, giant (giant foxtail, Setaria faberii); assay: Test A postemergence, visual plant response rating; conditions: for Foxtail, Giant plant response rating (0 to 100 scale): 500 g ai/ha, postemergence, 0 is no effect, 100 is complete control; for Foxtail, Giant plant response rating: Postemergence, 125 g ai/ha, 0 to 100 scale (0 no effect, 100 complete control)
How it was run: as §1

[11] = tested on: galium (catchweed bedstraw, Galium aparine); assay: Test A postemergence, visual plant response rating; conditions: for Galium plant response rating (0 to 100 scale): 500 g ai/ha, postemergence, 0 is no effect, 100 is complete control; for Galium plant response rating: Postemergence, 125 g ai/ha, 0 to 100 scale (0 no effect, 100 complete control)
How it was run: as §1

kochia (Kochia scoparia) [12] = assay: Test A postemergence, visual plant response rating; conditions: for Kochia plant response rating (0 to 100 scale): 500 g ai/ha, postemergence, 0 is no effect, 100 is complete control; for Kochia plant response rating: Postemergence, 125 g ai/ha, 0 to 100 scale (0 no effect, 100 complete control)
How it was run: as §1

[13] = tested on: pigweed (Amaranthus retroflexus); assay: Test A postemergence, visual plant response rating; conditions: for Pigweed plant response rating (0 to 100 scale): 500 g ai/ha, postemergence, 0 is no effect, 100 is complete control; for Pigweed plant response rating: Postemergence, 125 g ai/ha, 0 to 100 scale (0 no effect, 100 complete control)
How it was run: as §1

[14] = tested on: ragweed (common ragweed, Ambrosia elatior); assay: Test A postemergence, visual plant response rating; conditions: for Ragweed plant response rating (0 to 100 scale): 500 g ai/ha, postemergence, 0 is no effect, 100 is complete control; for Ragweed plant response rating: Postemergence, 125 g ai/ha, 0 to 100 scale (0 no effect, 100 complete control)
How it was run: as §1

[15] = tested on: wheat (Triticum aestivum); assay: Test A postemergence, visual plant response rating; conditions: for Wheat plant response rating (0 to 100 scale): 500 g ai/ha, postemergence, 0 is no effect, 100 is complete control
How it was run: as §1

[16] = tested on: barnyardgrass (Echinochloa crus-galli); assay: Test B flooded paddy test, visual plant response rating; conditions: 250 g ai/ha, Flood, applied to paddy water, 2-leaf stage, evaluated after 13 to 15 days
How it was run: (§2)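 Rice, umbrella sedge, ducksalad and barnyardgrass grown to 2-leaf stage; pots flooded 3 cm above soil and compound applied directly to paddy water, depth maintained.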

[17] = tested on: ducksalad (Heteranhera limosa); assay: as above; conditions: 250 g ai/ha, Flood, applied to paddy water, 2-leaf stage, evaluated after 13 to 15 days
How it was run: as §2

rice (Oryza sativa) = assay: as above; conditions: 250 g ai/ha, Flood, applied to paddy water, 2-leaf stage, evaluated after 13 to 15 days
How it was run: as §2

[18] = tested on: sedge, umbrella (small-flower umbrella sedge, Cyperus difformis); assay: as above; conditions: 250 g ai/ha, Flood, applied to paddy water, 2-leaf stage, evaluated after 13 to 15 days
How it was run: as §2

Row | SMILES | Ryegrass, Italian plant response rating [1] | Ryegrass, Italian plant response rating (0 to 100 scale) [1] | Barnyardgrass plant response rating [2] | Barnyardgrass plant response rating (0 to 100 scale) [2] | Foxtail, Giant plant response rating [3] | Foxtail, Giant plant response rating (0 to 100 scale) [3] | Kochia plant response rating (kochia (Kochia scoparia) [4]) | Kochia plant response rating (0 to 100 scale) (kochia (Kochia scoparia) [4]) | Pigweed plant response rating [5] | Pigweed plant response rating (0 to 100 scale) [5] | Ragweed plant response rating [6] | Ragweed plant response rating (0 to 100 scale) [6] | Ryegrass, Italian plant response rating (0 to 100 scale) [7] | Ryegrass, Italian plant response rating [7] | Barnyardgrass plant response rating (0 to 100 scale) [8] | Barnyardgrass plant response rating [8] | Blackgrass plant response rating (0 to 100 scale) [9] | Blackgrass plant response rating [9] | Corn plant response rating (0 to 100 scale) (corn (Zea mays)) | Corn plant response rating (corn (Zea mays)) | other results
1 | CCC(=O)Oc1c(C)nn(C)c(=O)c1C(=NOC)c1cccc2ccccc12 [Compound 49] | 40 | 70 | 30 | 90 | 50 | 80 | 50 | 70 | 90 | 100 | 100 | 100 | 80 | 40 | 50 | 20 | 90 | 70 | 50 | 0 | Foxtail, Giant plant response rating (0 to 100 scale) [10]: 80; Foxtail, Giant plant response rating [10]: 40; Galium plant response rating (0 to 100 scale) [11]: 90; Galium plant response rating [11]: 80; Kochia plant response rating (0 to 100 scale) (kochia (Kochia scoparia) [12]): 90; Kochia plant response rating (kochia (Kochia scoparia) [12]): 70; Pigweed plant response rating (0 to 100 scale) [13]: 90; Pigweed plant response rating [13]: 80; Ragweed plant response rating (0 to 100 scale) [14]: 90; Ragweed plant response rating [14]: 80; Wheat plant response rating (0 to 100 scale) [15]: 10; Wheat plant response rating ([15]; Postemergence, 125 g ai/ha, 0 to 100 scale (0 no effect, 100 complete control)): 0; Plant response rating, Barnyardgrass (0 to 100 scale, 0 is no effect, 100 is complete control) [16]: 0; Plant response rating, Ducksalad (0 to 100 scale, 0 is no effect, 100 is complete control) [17]: 0; Plant response rating, Rice (0 to 100 scale, 0 is no effect, 100 is complete control) (rice (Oryza sativa)): 0; Plant response rating, Sedge, Umbrella (0 to 100 scale, 0 is no effect, 100 is complete control) [18]: 0
2 | CON=C(c1c(O)c(C)nn(C)c1=O)c1cccc2ccoc12 [Compound 60] | 0 | 40 | 0 | 0 | 10 | 10 | 0 | 0 | 0 | 30 | 0 | 30 | 20 | 10 | 0 | 0 | 10 | 0 | 0 | 0 | Foxtail, Giant plant response rating (0 to 100 scale) [10]: 30; Foxtail, Giant plant response rating [10]: 0; Galium plant response rating (0 to 100 scale) [11]: 70; Galium plant response rating [11]: 60; Kochia plant response rating (0 to 100 scale) (kochia (Kochia scoparia) [12]): 50; Kochia plant response rating (kochia (Kochia scoparia) [12]): 30; Pigweed plant response rating (0 to 100 scale) [13]: 90; Pigweed plant response rating [13]: 50; Ragweed plant response rating (0 to 100 scale) [14]: 40; Ragweed plant response rating [14]: 20; Wheat plant response rating (0 to 100 scale) [15]: 40; Plant response rating, Barnyardgrass (0 to 100 scale, 0 is no effect, 100 is complete control) [16]: 0; Plant response rating, Ducksalad (0 to 100 scale, 0 is no effect, 100 is complete control) [17]: 0; Plant response rating, Rice (0 to 100 scale, 0 is no effect, 100 is complete control) (rice (Oryza sativa)): 0; Plant response rating, Sedge, Umbrella (0 to 100 scale, 0 is no effect, 100 is complete control) [18]: 0
